# Reference: PMC5218480 (PLoS ONE, 2017)
# System: MV-4-11 cells
# Experiment: Gene expression microarray analysis (Affymetrix PrimeView) and GSEA
# Type: cell-based, human
# Set-up: RFU PODN (11730768_x_at) / Fold change /veh PODN (11730768_x_at) / RFU LINC00158 (11744669_a_at) / Fold change /veh LINC00158 (11744669_a_at) / RFU DUSP10 (11751237_a_at) / Fold change /veh DUSP10 (11751237_a_at) / RFU ID3 (11757404_x_at) / Fold change /veh ID3 (11757404_x_at) / RFU PLEKHG5 (11737974_s_at) / Fold change /veh PLEKHG5 (11737974_s_at) / RFU LRRC4B (11730491_at) / Fold change /veh LRRC4B (11730491_at) / RFU GIMAP4 (11747438_a_at) / Fold change /veh GIMAP4 (11747438_a_at) / RFU KRT8 (11758183_x_at) / Fold change /veh KRT8 (11758183_x_at) / RFU CNN1 (11734310_a_at) / Fold change /veh CNN1 (11734310_a_at) / RFU VPS37D (11726825_at) / Fold change /veh VPS37D (11726825_at) / RFU C10orf10 (11716522_x_at) / Fold change /veh C10orf10 (11716522_x_at) / RFU KIR2DL2 /// KIR2DL4 /// KIR2DL5A /// KIR2DL5B /// KIR2DS1 /// KIR2DS2 /// KIR2DS3 /// KIR2DS4 /// KIR3DL3 /// KIR3DL3 /// KIR3DS1 (11738374_at) / Fold change /veh KIR2DL2 /// KIR2DL4 /// KIR2DL5A /// KIR2DL5B /// KIR2DS1 /// KIR2DS2 /// KIR2DS3 /// KIR2DS4 /// KIR3DL3 /// KIR3DL3 /// KIR3DS1 (11738374_at) / RFU C1QL1 (11718748_at) / Fold change /veh C1QL1 (11718748_at) / RFU TMPRSS4 (11747572_a_at) / Fold change /veh TMPRSS4 (11747572_a_at) / RFU HAMP (11756126_x_at) / Fold change /veh HAMP (11756126_x_at) / RFU RNFT2 (11725882_a_at) / Fold change /veh RNFT2 (11725882_a_at) / RFU NR4A2 (11747474_a_at) / Fold change /veh NR4A2 (11747474_a_at) / RFU ABCC12 (11746883_a_at) / Fold change /veh ABCC12 (11746883_a_at) / RFU TMEM136 (11760407_x_at) / Fold change /veh TMEM136 (11760407_x_at) / RFU CLDN22 /// WWC2 (11732394_at) / Fold change /veh CLDN22 /// WWC2 (11732394_at) / RFU HLA-DPB1 (11760878_x_at) / Fold change /veh HLA-DPB1 (11760878_x_at) / RFU SPINT1 (11716480_a_at) / Fold change /veh SPINT1 (11716480_a_at) / RFU GAP43 (11754022_s_at) / Fold change /veh GAP43 (11754022_s_at) / RFU A4GNT (11735810_at) / Fold change /veh A4GNT (11735810_at) / RFU PRB3 (11715151_x_at) / Fold change /veh PRB3 (11715151_x_at) / RFU TUBB4B (11761932_at) / Fold change /veh TUBB4B (11761932_at) / RFU CAPN14 (11732068_a_at) / Fold change /veh CAPN14 (11732068_a_at) / RFU TMCC2 (11721928_a_at) / Fold change /veh TMCC2 (11721928_a_at) / RFU IRGQ (11745062_a_at) / Fold change /veh IRGQ (11745062_a_at) / RFU FAM174B (11720279_a_at) / Fold change /veh FAM174B (11720279_a_at) / RFU TMPRSS4 (11748680_a_at) / Fold change /veh TMPRSS4 (11748680_a_at) / RFU FAM212B (11763350_a_at) / Fold change /veh FAM212B (11763350_a_at) / RFU PLEKHG5 (11743358_a_at) / Fold change /veh PLEKHG5 (11743358_a_at) / RFU ZSCAN30 (11745921_a_at) / Fold change /veh ZSCAN30 (11745921_a_at) / RFU CMKLR1 (11741424_a_at) / Fold change /veh CMKLR1 (11741424_a_at) / RFU LOC101060620 /// MAPK8IP1 (11723275_at) / Fold change /veh LOC101060620 /// MAPK8IP1 (11723275_at) / RFU SPTSSB (11747773_x_at) / Fold change /veh SPTSSB (11747773_x_at) / RFU PRSS12 (11739890_at) / Fold change /veh PRSS12 (11739890_at) / RFU BIN1 (11741810_x_at) / Fold change /veh BIN1 (11741810_x_at) / RFU WNT11 (11732464_a_at) / Fold change /veh WNT11 (11732464_a_at) / RFU C10orf10 (11716521_a_at) / Fold change /veh C10orf10 (11716521_a_at) / RFU C5orf56 (11738089_at) / Fold change /veh C5orf56 (11738089_at) / RFU CYB561 (11721691_x_at) / Fold change /veh CYB561 (11721691_x_at) / RFU ANKRD19P (11752326_a_at) / Fold change /veh ANKRD19P (11752326_a_at) / RFU OR2T12 /// OR2T33 /// OR2T8 (11738714_s_at) / Fold change /veh OR2T12 /// OR2T33 /// OR2T8 (11738714_s_at) / RFU VCAN (11748164_a_at) / Fold change /veh VCAN (11748164_a_at) / RFU JSRP1 (11732532_at) / Fold change /veh JSRP1 (11732532_at) / RFU KRTAP10-11 (11738290_x_at) / Fold change /veh KRTAP10-11 (11738290_x_at) / RFU MYO3A (11730013_a_at) / Fold change /veh MYO3A (11730013_a_at) / RFU EBF3 (11725865_a_at) / Fold change /veh EBF3 (11725865_a_at) / RFU CAMK2N1 (11719241_x_at) / Fold change /veh CAMK2N1 (11719241_x_at) / RFU C5orf56 (11738088_a_at) / Fold change /veh C5orf56 (11738088_a_at) / RFU OLFML3 (11715873_a_at) / Fold change /veh OLFML3 (11715873_a_at) / RFU LOC100653217 /// NTM (11731650_a_at) / Fold change /veh LOC100653217 /// NTM (11731650_a_at) / RFU MAPK11 (11762145_a_at) / Fold change /veh MAPK11 (11762145_a_at) / RFU FIZ1 (11724087_x_at) / Fold change /veh FIZ1 (11724087_x_at) / RFU OASL (11726364_x_at) / Fold change /veh OASL (11726364_x_at) / RFU SOX15 (11748057_x_at) / Fold change /veh SOX15 (11748057_x_at) / RFU CD79A (11719716_a_at) / Fold change /veh CD79A (11719716_a_at) / RFU HIST1H1D (11736915_at) / Fold change /veh HIST1H1D (11736915_at) / RFU CASKIN2 (11723855_a_at) / Fold change /veh CASKIN2 (11723855_a_at) / RFU LOC730098 (11760151_x_at) / Fold change /veh LOC730098 (11760151_x_at) / RFU OR4N2 (11742367_at) / Fold change /veh OR4N2 (11742367_at) / RFU PRRT2 (11749266_a_at) / Fold change /veh PRRT2 (11749266_a_at) / RFU SNX32 (11753110_a_at) / Fold change /veh SNX32 (11753110_a_at) / RFU CDHR5 (11726645_a_at) / Fold change /veh CDHR5 (11726645_a_at) / RFU RCAN1 (11760418_a_at) / Fold change /veh RCAN1 (11760418_a_at) / RFU FAM167A (11723789_a_at) / Fold change /veh FAM167A (11723789_a_at) / RFU FAM26E (11764081_at) / Fold change /veh FAM26E (11764081_at) / RFU ISYNA1 (11749810_s_at) / Fold change /veh ISYNA1 (11749810_s_at) / RFU ACY1 (11761880_at) / Fold change /veh ACY1 (11761880_at) / RFU 11764098_at / Fold change /veh 11764098_at / RFU SAMD14 (11745864_x_at) / Fold change /veh SAMD14 (11745864_x_at) / RFU NPB (11741838_a_at) / Fold change /veh NPB (11741838_a_at) / RFU TMPRSS6 (11731388_a_at) / Fold change /veh TMPRSS6 (11731388_a_at) / RFU KRTAP10-2 (11738614_at) / Fold change /veh KRTAP10-2 (11738614_at) / RFU ARHGAP8 /// PRR5-ARHGAP8 (11727945_x_at) / Fold change /veh ARHGAP8 /// PRR5-ARHGAP8 (11727945_x_at) / RFU KRTAP5-7 /// NADSYN1 (11734609_at) / Fold change /veh KRTAP5-7 /// NADSYN1 (11734609_at) / RFU RASL12 (11751679_a_at) / Fold change /veh RASL12 (11751679_a_at) / RFU CDKN2B (11736163_a_at) / Fold change /veh CDKN2B (11736163_a_at) / RFU PRF1 (11729649_at) / Fold change /veh PRF1 (11729649_at) / RFU, ZNF638 /// ZNF638-IT1 / Fold change vs veh, ZNF638 /// ZNF638-IT1 / RFU, PANK3 / Fold change vs veh, PANK3 / RFU, SH3YL1 / Fold change vs veh, SH3YL1 / RFU, ZEB2 / Fold change vs veh, ZEB2 / RFU, NRIP1 / Fold change vs veh, NRIP1 / RFU, PTTG1IP / Fold change vs veh, PTTG1IP / RFU, CAPN2 / Fold change vs veh, CAPN2 / RFU, MED14 / Fold change vs veh, MED14 / RFU, SNORA58 / Fold change vs veh, SNORA58 / RFU, C1orf63 / Fold change vs veh, C1orf63 / RFU, LRRFIP1 / Fold change vs veh, LRRFIP1 / RFU, NDUFAF7 / Fold change vs veh, NDUFAF7 / RFU, SLC12A2 / Fold change vs veh, SLC12A2 / RFU, IBTK / Fold change vs veh, IBTK / RFU, ESF1 / Fold change vs veh, ESF1 / Fold change vs veh, TMEM50B / RFU, TAOK1 / Fold change vs veh, TAOK1 / RFU, ACBD3 / Fold change vs veh, ACBD3 / RFU, TMA16 / Fold change vs veh, TMA16 / RFU, RWDD3 / Fold change vs veh, RWDD3 / RFU, BCAT1 / Fold change vs veh, BCAT1 / RFU, EDEM3 / Fold change vs veh, EDEM3 / RFU, TMEM33 / Fold change vs veh, TMEM33 / RFU, WDR75 / Fold change vs veh, WDR75 / RFU, AHCTF1 / Fold change vs veh, AHCTF1 / RFU, TFRC / Fold change vs veh, TFRC / RFU, ZDHHC17 / Fold change vs veh, ZDHHC17 / RFU, NOM1 / Fold change vs veh, NOM1 / RFU, ARL8B / Fold change vs veh, ARL8B / RFU, ZBTB11 / Fold change vs veh, ZBTB11 / RFU, TAMM41 / Fold change vs veh, TAMM41 / RFU, KIAA1704 /// LOC100996395 / Fold change vs veh, KIAA1704 /// LOC100996395 / RFU, ING1 / Fold change vs veh, ING1 / RFU, TRMT61B / Fold change vs veh, TRMT61B / RFU, FUBP3 / Fold change vs veh, FUBP3 / RFU, TP53 / Fold change vs veh, TP53 / RFU, TNKS2 / Fold change vs veh, TNKS2 / RFU, ZFP14 / Fold change vs veh, ZFP14 / RFU, ACTR2 / Fold change vs veh, ACTR2 / RFU, PPP3R1 / Fold change vs veh, PPP3R1 / RFU, PIK3R1 / Fold change vs veh, PIK3R1 / RFU, HNRNPA1 / Fold change vs veh, HNRNPA1 / RFU, RNF170 / Fold change vs veh, RNF170 / RFU, ZNF28 / Fold change vs veh, ZNF28 / RFU, RNGTT / Fold change vs veh, RNGTT / RFU, OGT / Fold change vs veh, OGT / RFU, BRD1 / Fold change vs veh, BRD1 / RFU, MARS / Fold change vs veh, MARS / RFU, ZNF655 / Fold change vs veh, ZNF655 / RFU, FAHD1 / Fold change vs veh, FAHD1 / RFU, BDP1 / Fold change vs veh, BDP1 / RFU, LRRCC1 / Fold change vs veh, LRRCC1 / RFU, ARID1A / Fold change vs veh, ARID1A / RFU, ZNF146 / Fold change vs veh, ZNF146 / RFU, ZNF330 / Fold change vs veh, ZNF330 / RFU, GPN3 / Fold change vs veh, GPN3 / RFU, C9orf123 / Fold change vs veh, C9orf123 / RFU, N4BP2L2 / Fold change vs veh, N4BP2L2 / RFU, ARFIP1 / Fold change vs veh, ARFIP1 / RFU, FAM179B / Fold change vs veh, FAM179B / RFU, BCL10 / Fold change vs veh, BCL10 / RFU, UHRF1BP1L / Fold change vs veh, UHRF1BP1L / RFU, BET1 / Fold change vs veh, BET1 / RFU, CNOT2 / Fold change vs veh, CNOT2 / RFU, ZNF268 / Fold change vs veh, ZNF268 / Fold change vs veh, ZNF507 / RFU, DGCR2 / Fold change vs veh, DGCR2 / RFU, WDSUB1 / Fold change vs veh, WDSUB1 / Fold change vs veh, HSP90B1 /// MIR3652 / RFU, ADSS / Fold change vs veh, ADSS / RFU, GK / Fold change vs veh, GK / RFU, ZNF148 / Fold change vs veh, ZNF148 / RFU, TAF9 / Fold change vs veh, TAF9 / RFU, SLC1A5 / Fold change vs veh, SLC1A5 / RFU, SLMO2 / Fold change vs veh, SLMO2 / RFU, ABCC4 / Fold change vs veh, ABCC4 / RFU, LOC101060439 /// RAP1B / Fold change vs veh, LOC101060439 /// RAP1B / RFU, RFX7 / Fold change vs veh, RFX7 / RFU, GTPBP10 / Fold change vs veh, GTPBP10 / RFU, CNEP1R1 / Fold change vs veh, CNEP1R1 / RFU, BIVM-ERCC5 /// ERCC5 / Fold change vs veh, BIVM-ERCC5 /// ERCC5 / RFU, ILF3 / Fold change vs veh, ILF3 / RFU 11762660_at / Fold change /veh 11762660_at / RFU VCAN (11757783_s_at) / Fold change /veh VCAN (11757783_s_at) / RFU DDX43 (11728927_at) / Fold change /veh DDX43 (11728927_at) / RFU KRT8 (11758188_x_at) / Fold change /veh KRT8 (11758188_x_at) / RFU NKD1 (11759106_at) / Fold change /veh NKD1 (11759106_at) / RFU SRD5A1 (11742802_a_at) / Fold change /veh SRD5A1 (11742802_a_at) / RFU TPSAB1 /// TPSB2 (11721975_s_at) / Fold change /veh TPSAB1 /// TPSB2 (11721975_s_at) / RFU GSTM3 (11746129_a_at) / Fold change /veh GSTM3 (11746129_a_at) / RFU IL23R (11737362_x_at) / Fold change /veh IL23R (11737362_x_at) / RFU TMEM51 (11727254_a_at) / Fold change /veh TMEM51 (11727254_a_at) / RFU PIWIL2 (11732686_x_at) / Fold change /veh PIWIL2 (11732686_x_at) / RFU ORM1 (11744905_x_at) / Fold change /veh ORM1 (11744905_x_at) / RFU CCDC152 (11743942_at) / Fold change /veh CCDC152 (11743942_at) / RFU ECM1 (11717891_a_at) / Fold change /veh ECM1 (11717891_a_at) / RFU IL23R (11748794_a_at) / Fold change /veh IL23R (11748794_a_at) / RFU TNFAIP8L3 (11732012_x_at) / Fold change /veh TNFAIP8L3 (11732012_x_at) / RFU MBOAT4 (11741988_at) / Fold change /veh MBOAT4 (11741988_at) / RFU 11764193_at / Fold change /veh 11764193_at / RFU TMEM53 (11763286_at) / Fold change /veh TMEM53 (11763286_at) / RFU MAGEB2 (11727129_at) / Fold change /veh MAGEB2 (11727129_at) / RFU TMEM200A (11744735_a_at) / Fold change /veh TMEM200A (11744735_a_at) / RFU CCDC152 (11751479_a_at) / Fold change /veh CCDC152 (11751479_a_at) / RFU FAM211A (11726209_a_at) / Fold change /veh FAM211A (11726209_a_at) / RFU RGS16 (11746705_a_at) / Fold change /veh RGS16 (11746705_a_at) / RFU VCAN (11755009_s_at) / Fold change /veh VCAN (11755009_s_at) / RFU RHOB (11743442_s_at) / Fold change /veh RHOB (11743442_s_at) / RFU RGS16 (11720943_a_at) / Fold change /veh RGS16 (11720943_a_at) / RFU RGS16 (11720944_at) / Fold change /veh RGS16 (11720944_at) / RFU, VPS4B / Fold change vs veh, VPS4B / RFU, CREB1 / Fold change vs veh, CREB1 / RFU, DNAJC13 / Fold change vs veh, DNAJC13 / RFU, GNAQ / Fold change vs veh, GNAQ / RFU, CDK5R1 / Fold change vs veh, CDK5R1 / RFU, ZRANB3 / Fold change vs veh, ZRANB3 / RFU, CUL4A / Fold change vs veh, CUL4A / RFU, CCNY / Fold change vs veh, CCNY / RFU, UFL1 / Fold change vs veh, UFL1 / RFU, COG3 / Fold change vs veh, COG3 / RFU, DIAPH2 / Fold change vs veh, DIAPH2 / RFU, SKA2 / Fold change vs veh, SKA2 / RFU, AFF3 / Fold change vs veh, AFF3 / RFU, LMF1 / Fold change vs veh, LMF1 / RFU, IPO11 / Fold change vs veh, IPO11 / RFU, DFFB / Fold change vs veh, DFFB / RFU, FOXP1 / Fold change vs veh, FOXP1 / RFU, CARD8 / Fold change vs veh, CARD8 / RFU, STRN3 / Fold change vs veh, STRN3 / RFU, ADK / Fold change vs veh, ADK / RFU, RASSF2 / Fold change vs veh, RASSF2 / RFU, WIPF1 / Fold change vs veh, WIPF1 / RFU, LARP1B / Fold change vs veh, LARP1B / RFU, RASA1 / Fold change vs veh, RASA1 / RFU, RB1 / Fold change vs veh, RB1 / RFU, PPFIA1 / Fold change vs veh, PPFIA1 / RFU, MAT2A / Fold change vs veh, MAT2A / RFU, CCT5 / Fold change vs veh, CCT5 / RFU, WDR92 / Fold change vs veh, WDR92 / RFU, CUX1 / Fold change vs veh, CUX1 / RFU, TTC7A / Fold change vs veh, TTC7A / RFU, TMEM135 / Fold change vs veh, TMEM135 / RFU, DEPTOR / Fold change vs veh, DEPTOR / RFU, CPM / Fold change vs veh, CPM / RFU, DNAJB6 / Fold change vs veh, DNAJB6 / RFU, CACNA2D3 / Fold change vs veh, CACNA2D3 / RFU, DTX4 / Fold change vs veh, DTX4 / RFU, TFCP2 / Fold change vs veh, TFCP2 / RFU, GMCL1 /// GMCL1P1 / Fold change vs veh, GMCL1 /// GMCL1P1 / RFU, AEBP2 / Fold change vs veh, AEBP2 / RFU, SNHG1 /// SNORD22 /// SNORD25 /// SNORD26 /// SNORD27 /// SNORD28 /// SNORD29 /// SNORD31 / Fold change vs veh, SNHG1 /// SNORD22 /// SNORD25 /// SNORD26 /// SNORD27 /// SNORD28 /// SNORD29 /// SNORD31 / Fold change (Aza/veh), C12orf56 (ProbeSet 11735607_a_at) / Fold change (ACY-1035/veh), C12orf56 (ProbeSet 11735607_a_at) / Fold change (Aza/veh), FGFR1OP (ProbeSet 11751329_s_at) / Fold change (ACY-1035/veh), FGFR1OP (ProbeSet 11751329_s_at) / Fold change (Aza/veh), VPS36 (ProbeSet 11739960_a_at) / Fold change (ACY-1035/veh), VPS36 (ProbeSet 11739960_a_at) / RFU SYPL1 (11715823_x_at) / Fold change /veh SYPL1 (11715823_x_at) / RFU IGFBP7 (11715501_s_at) / Fold change /veh IGFBP7 (11715501_s_at) / RFU REEP3 (11722064_at) / Fold change /veh REEP3 (11722064_at) / RFU IGLL1 (11728026_x_at) / Fold change /veh IGLL1 (11728026_x_at): dose or concentration left out as unconfirmed
# Conditions: ProbeSet 11723141_at; LIST B
smiles,measurement,value
Nc1ccc(-c2cccs2)cc1NC(=O)c1ccc2c(c1)cc(C1CC1)n2CCN1CCOCC1 [ACY-1035],"Fold change vs veh, ZBTB11",0.84
